Here are results for 21 compounds from patent publication US20220389009A1, “SUBSTITUTED 1,6-NAPHTHYRIDINE INHIBITORS OF CDK5” (Goldfinch Bio, Inc., priority 2019, published 2022).

One assay addresses CDK5/p25 (Homo sapiens, UniProt Q00535). As to the kind of experiment: CDK5 mobility shift assay (enzymatic activity of CDK5/p25). Type of assay: biochemical. The following applies: for IC50: 0.154 nM CDK5/p25, FL peptide 29, 60 min at room temperature, read-out: CDK5 IC50; for CDK5/CDK2 specificity: fold more active against CDK5 than CDK2. The gist of the method:
(§1)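 Phosphorylation of 1.5 μM fluorescent peptide was read by microfluidic mobility shift and fitted to IC50 (4-parameter), normalized to no-compound and no-enzyme controls. CDK5/p25 ran at 0.154 nM with […] ATP for 60 min, using peptide 29. CDK2/CycA2 ran at 1.25 nM with 37 μM ATP for 120 min, using peptide 18. Both included a 30-min compound preincubation in pH 7.5 buffer.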

The next assay addresses CDK2/CycA2 (Homo sapiens, UniProt P24941). Put plainly: CDK2 mobility shift assay (enzymatic activity of CDK2/CycA2). It is filed as biochemical. The following applies: 1.25 nM CDK2/CycA2, 37 μM ATP, FL Peptide 18, 120 min at room temperature; read-out: CDK2 IC50. The gist of the method:
as §1

CDK5/p25, sequence (Q00535 whole entry): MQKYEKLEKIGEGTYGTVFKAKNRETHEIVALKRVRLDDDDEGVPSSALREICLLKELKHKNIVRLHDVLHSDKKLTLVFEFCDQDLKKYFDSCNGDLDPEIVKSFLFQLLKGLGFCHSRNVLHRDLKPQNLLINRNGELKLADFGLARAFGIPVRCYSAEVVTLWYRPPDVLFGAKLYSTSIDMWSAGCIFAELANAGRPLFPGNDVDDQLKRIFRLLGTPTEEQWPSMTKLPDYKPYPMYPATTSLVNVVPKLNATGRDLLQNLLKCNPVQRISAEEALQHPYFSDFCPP
CDK5/p25, sequence (Q15078 99-307 partner limits assumed): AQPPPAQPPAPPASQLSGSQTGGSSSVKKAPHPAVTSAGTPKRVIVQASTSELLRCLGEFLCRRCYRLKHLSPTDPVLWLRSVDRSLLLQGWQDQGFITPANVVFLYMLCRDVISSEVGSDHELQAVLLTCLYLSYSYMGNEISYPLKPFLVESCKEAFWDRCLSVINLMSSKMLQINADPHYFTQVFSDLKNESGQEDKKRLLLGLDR

By IC50 is commonly meant the point on the concentration scale where inhibition reaches its midpoint. Turning to `Fc1cc(-n2cccn2)ccc1Nc1cc2nc(C=C3CCNCC3)ccc2cn1` [Compound 130, N-[2-fluoro-4-(pyrazol-1-yl)phenyl]-2-(piperidin-4-ylidenemethyl)-1,6-naphthyridin-7-amine], at CDK5/p25, the IC50 was in the range of 10 to 100 nM; the CDK5/CDK2 specificity result is “++ (greater than 10-fold and less than or equal to 100-fold more active against CDK5 than CDK2)”. Further, on CDK2/CycA2, the IC50 is more than 1000 nM.
Turning to `NC(=O)c1cccc(Nc2cc3nc(SC4CCNCC4)ccc3cn2)c1` [Compound 134, 3-[[2-(piperidin-4-ylsulfanyl)-1,6-naphthyridin-7-yl]amino]benzamide], the IC50 at CDK5/p25 was less than 10 nM; on CDK2/CycA2, 10 to 100 nM. Also, the CDK5/CDK2 specificity result on CDK5/p25 was “++ (greater than 10-fold and less than or equal to 100-fold more active against CDK5 than CDK2)”.
In the case of `Nc1cccc(C(=O)Nc2cc3nc(SC4CCNCC4)ccc3cn2)c1` [Compound 136, 3-amino-N-[2-(piperidin-4-ylsulfanyl)-1,6-naphthyridin-7-yl]benzamide], the half-inhibitory concentration (IC50) at CDK5/p25 and at CDK2/CycA2 was 100 to 1000 nM in each case. Also, the CDK5/CDK2 specificity result at CDK5/p25 is listed as “+ (10-fold or less more active against CDK5 than CDK2)”.
As to `OCCN1CCC(Sc2ccc3cnc(Nc4ccc(-n5ccc(CO)n5)cc4F)cc3n2)CC1` [Compound 138, 2-(4-[[7-([2-fluoro-4-[3-(hydroxymethyl)pyrazol-1-yl]phenyl]amino)-1,6-naphthyridin-2-yl]sulfanyl]piperidin-1-yl)ethanol], at CDK5/p25, the half-inhibitory concentration (IC50) is less than 10 nM; the CDK5/CDK2 specificity entry was “++ (greater than 10-fold and less than or equal to 100-fold more active against CDK5 than CDK2)”. In addition, the IC50 on CDK2/CycA2 was 10 to 100 nM.
In the case of `C=C(c1ccc2cnc(Nc3ccc(-n4ccc(CO)n4)cc3F)cc2n1)C1CCNCC1` [Compound 139, [1-[3-fluoro-4-([2-[1-(piperidin-4-yl)ethenyl]-1,6-naphthyridin-7-yl]amino)phenyl]pyrazol-3-yl]methanol], on CDK5/p25, the IC50 is less than 10 nM and the CDK5/CDK2 specificity entry is “+++ (greater than 100-fold more active against CDK5 than CDK2)”. Further, the concentration for half-maximal inhibition (IC50) at CDK2/CycA2 lay within 100 to 1000 nM.
As to `CN1CCC(C)(Nc2ccc3cnc(Nc4ccc(-n5ccc(CO)n5)cc4F)cc3n2)CC1` [Compound 140, [1-[4-([2-[(1,4-dimethylpiperidin-4-yl)amino]-1,6-naphthyridin-7-yl]amino)-3-fluorophenyl]pyrazol-3-yl]methanol], the IC50 at CDK5/p25 is 100 to 1000 nM; at CDK2/CycA2, more than 1000 nM. Also, the CDK5/CDK2 specificity result at CDK5/p25 was “+ (10-fold or less more active against CDK5 than CDK2)”.
Turning to `O=C(c1ccc2cnc(Nc3ccc(-n4cccn4)cc3F)cc2n1)C1CCNCC1` [Compound 141, N-[2-fluoro-4-(pyrazol-1-yl)phenyl]-2-(piperidine-4-carbonyl)-1,6-naphthyridin-7-amine], on CDK5/p25, the concentration for half-maximal inhibition (IC50) is less than 10 nM; the CDK5/CDK2 specificity entry was “++ (greater than 10-fold and less than or equal to 100-fold more active against CDK5 than CDK2)”. The IC50 on CDK2/CycA2 was in the range of 10 to 100 nM.
For the compound `OCc1ccn(-c2ccc(Nc3cc4nc(C(CO)C5CCNCC5)ccc4cn3)c(F)c2)n1` (stereo not drawn) [Compound 142], on CDK5/p25, the 50% inhibitory concentration (IC50) fell in the range of 100 to 1000 nM and the CDK5/CDK2 specificity entry is “+ (10-fold or less more active against CDK5 than CDK2)”. Also, at CDK2/CycA2, the IC50 is more than 1000 nM.
With `CCN1CCC(N(CC(=O)O)c2ccc3cnc(Nc4ccc(-n5ccc(CO)n5)cc4F)cc3n2)CC1` [Compound 144, [(1-ethylpiperidin-4-yl)[7-([2-fluoro-4-[3-(hydroxymethyl)pyrazol-1-yl]phenyl]amino)-1,6-naphthyridin-2-yl]amino]acetic acid], the results for the 50% inhibitory concentration (IC50) at CDK5/p25 and on CDK2/CycA2 were less than 10 nM and 100 to 1000 nM, respectively. For the same compound, on CDK5/p25, the CDK5/CDK2 specificity entry is “+++ (greater than 100-fold more active against CDK5 than CDK2)”.
For `OC(c1ccc2cnc(Nc3ccc(-n4cccn4)cc3F)cc2n1)C1CCNCC1` (stereo not drawn) [Compound 149, (7-[[2-fluoro-4-(pyrazol-1-yl)phenyl]amino]-1,6-naphthyridin-2-yl) (piperidin-4-yl)methanol], the concentration for half-maximal inhibition (IC50) at CDK5/p25 was 10 to 100 nM; on CDK2/CycA2, more than 1000 nM. In addition, the CDK5/CDK2 specificity entry on CDK5/p25 is “++ (greater than 10-fold and less than or equal to 100-fold more active against CDK5 than CDK2)”.
As for `CN1CCC(=Cc2ccc3cnc(Nc4ccc(-n5ccc(CO)n5)cc4F)cc3n2)CC1` [Compound 150, [1-[3-fluoro-4-([2-[(1-methylpiperidin-4-ylidene)methyl]-1,6-naphthyridin-7-yl]amino)phenyl]pyrazol-3-yl]methanol], at CDK5/p25, the IC50 was 10 to 100 nM; the CDK5/CDK2 specificity entry is “++ (greater than 10-fold and less than or equal to 100-fold more active against CDK5 than CDK2)”. On CDK2/CycA2, the IC50 is more than 1000 nM.
`CN[C@H]1CC[C@@H](N(CC(=O)O)c2ccc3cnc(Nc4ccc(-n5cccn5)cc4F)cc3n2)CC1` [Compound 155, [(7-[[2-fluoro-4-(pyrazol-1-yl)phenyl]amino]-1,6-naphthyridin-2-yl)[(1s,4s)-4-(methylamino)cyclohexyl]amino]acetic acid]: at CDK5/p25, the half-inhibitory concentration (IC50) was 100 to 1000 nM; the CDK5/CDK2 specificity entry was “++ (greater than 10-fold and less than or equal to 100-fold more active against CDK5 than CDK2)”. Besides, the IC50 at CDK2/CycA2 is more than 1000 nM.
In the case of `CN1CCC(S(=O)(=O)c2ccc3cnc(Nc4ccc(-n5cccn5)cc4F)cc3n2)CC1` [Compound 158, N-[2-fluoro-4-(pyrazol-1-yl)phenyl]-2-(1-methylpiperidin-4-ylsulfonyl)-1,6-naphthyridin-7-amine], on CDK5/p25, the IC50 is less than 10 nM and the CDK5/CDK2 specificity result is given as “+++ (greater than 100-fold more active against CDK5 than CDK2)”. For the same compound, the 50% inhibitory concentration (IC50) on CDK2/CycA2 is 100 to 1000 nM.
`N#CCN(c1ccc2cnc(Nc3ccc(-n4ccc(CO)n4)cc3F)cc2n1)C1CCNCC1` [Compound 162, 2-[[7-([2-fluoro-4-[3-(hydroxymethyl)pyrazol-1-yl]phenyl]amino)-1,6-naphthyridin-2-yl](piperidin-4-yl)amino]acetonitrile]: the figures for the half-maximal inhibitory concentration (IC50) at CDK5/p25 and at CDK2/CycA2 were 100 to 1000 nM and more than 1000 nM, respectively. For the same compound, at CDK5/p25, the CDK5/CDK2 specificity entry was “++ (greater than 10-fold and less than or equal to 100-fold more active against CDK5 than CDK2)”.
On to `CN1CCC2(CC1)CC2c1ccc2cnc(Nc3ccc(-n4cccn4)cc3F)cc2n1` (stereo not drawn) [Compound 164, N-[2-fluoro-4-(pyrazol-1-yl)phenyl]-2-[6-methyl-6-azaspiro[2.5]octan-1-yl]-1,6-naphthyridin-7-amine], for which, on CDK5/p25, the IC50 fell in the range of 100 to 1000 nM; the CDK5/CDK2 specificity entry was “++ (greater than 10-fold and less than or equal to 100-fold more active against CDK5 than CDK2)”. In addition, the IC50 on CDK2/CycA2 is more than 1000 nM.
For the compound `NC(c1ccc2cnc(Nc3ccc(-n4cccn4)cc3F)cc2n1)C1CCNCC1` (stereo not drawn) [Compound 165, 2-[amino(piperidin-4-yl)methyl]-N-[2-fluoro-4-(pyrazol-1-yl)phenyl]-1,6-naphthyridin-7-amine], on CDK5/p25, the IC50 lay within 10 to 100 nM; the CDK5/CDK2 specificity result is “++ (greater than 10-fold and less than or equal to 100-fold more active against CDK5 than CDK2)”. For the same compound, at CDK2/CycA2, the IC50 is 100 to 1000 nM.
Consider `C=C(c1ccc2cnc(Nc3ccc(-n4ccc(CO)n4)cc3F)cc2n1)C1CCN(C)CC1` [Compound 168, [1-[3-fluoro-4-([2-[1-(1-methylpiperidin-4-yl)ethenyl]-1,6-naphthyridin-7-yl]amino)phenyl]pyrazol-3-yl]methanol], for which, at CDK5/p25, the IC50 is less than 10 nM and the CDK5/CDK2 specificity result is “+++ (greater than 100-fold more active against CDK5 than CDK2)”. Besides, the concentration for half-maximal inhibition (IC50) at CDK2/CycA2 was 100 to 1000 nM.
`Fc1cc(-n2cccn2)ccc1Nc1cc2nc(C(F)(F)C3CCNCC3)ccc2cn1` [Compound 169, 2-[difluoro(piperidin-4-yl)methyl]-N-[2-fluoro-4-(pyrazol-1-yl)phenyl]-1,6-naphthyridin-7-amine]: on CDK5/p25, the IC50 was less than 10 nM; the CDK5/CDK2 specificity result is “++ (greater than 10-fold and less than or equal to 100-fold more active against CDK5 than CDK2)”. Besides, at CDK2/CycA2, the IC50 was 10 to 100 nM.
`CN(C)[C@H]1CC[C@@H](N(CC(=O)O)c2ccc3cnc(Nc4ccc(-n5ccc(CO)n5)cc4F)cc3n2)CC1` [Compound 182, [[7-([2-fluoro-4-[3-(hydroxymethyl)pyrazol-1-yl]phenyl]amino)-1,6-naphthyridin-2-yl][(1s,4s)-4-(dimethylamino)cyclohexyl]amino]acetic acid]: on CDK5/p25, the IC50 is more than 1000 nM; the CDK5/CDK2 specificity result was “++ (greater than 10-fold and less than or equal to 100-fold more active against CDK5 than CDK2)”. Also, the IC50 at CDK2/CycA2 was more than 1000 nM.
As to `CN1CCC(S(=O)(=O)c2ccc3cnc(Nc4ccc(-c5ccc(F)cc5)cc4F)cc3n2)CC1` [Compound 183, N-{3,4′-difluoro-[1,1′-biphenyl]-4-yl}-2-(1-methylpiperidin-4-ylsulfonyl)-1,6-naphthyridin-7-amine], on CDK5/p25, the IC50 was less than 10 nM and the CDK5/CDK2 specificity result is given as “+++ (greater than 100-fold more active against CDK5 than CDK2)”. Further, at CDK2/CycA2, the IC50 was more than 1000 nM.
`CC(O)(c1ccc2cnc(Nc3ccc(-n4cccn4)cc3F)cc2n1)C1CCNCC1` (stereo not drawn) [Compound 196, 1-(7-[[2-fluoro-4-(pyrazol-1-yl)phenyl]amino]-1,6-naphthyridin-2-yl)-1-(piperidin-4-yl)ethanol]: at CDK5/p25, the concentration for half-maximal inhibition (IC50) was less than 10 nM; the CDK5/CDK2 specificity entry was “++ (greater than 10-fold and less than or equal to 100-fold more active against CDK5 than CDK2)”. Also, the IC50 at CDK2/CycA2 lay within 100 to 1000 nM.
